Converted amounts (≈) assume the structure as drawn.
conditions: buffer; pH 7.4; 200.0 µM

| solubility kinetic | Structure (SMILES) |
| --- | --- |
| > 50.3 µg/mL | Cc1ccc(SCC(=O)OCC(=O)NC2CCCCCC2)cc1 |
| 21.1 µg/mL (≈ 53.8 µM) | COc1cccc(CNC(=O)COC(=O)C23CC4CC(CC(Cl)(C4)C2)C3)c1 |
| 22.9 µg/mL (≈ 105 µM) | O=C(NCc1ccco1)c1ccccc1O |
| 34.1 µg/mL (≈ 111 µM) | CCN(CC)c1ccc(NC(=S)NCC2CCCO2)cc1 (stereo not given) |
| > 36.2 µg/mL | CC(=O)NN1CCc2cc3ccc(C)cc3nc21 |
| 38.1 µg/mL (≈ 108 µM) | COc1ccccc1OCc1ccc(C(=O)NC(C)c2ccccc2)o1 (stereo not given) |
| < 0.3 µg/mL | O=C(Nc1ccc2c(c1)CCC2)c1cnc(Cl)c(Cl)c1 |
| 51.1 µg/mL (≈ 147 µM) | CCN1CCN(c2nc3c(C)cccn3c(=O)c2C=C(C#N)C#N)CC1 |
| 5.8 µg/mL (≈ 18.3 µM) | Cc1nc(N2CCOCC2)nc(Oc2ccccc2)c1[N+](=O)[O-] |
| 24 µg/mL (≈ 107 µM) | CCOC(=O)c1[nH]c(C)c(CC(C)C)c1C |
| 4.9 µg/mL (≈ 14.6 µM) | CCCNC(=S)N1CCC(NC(=O)Nc2ccc(C)cc2)CC1 |
| 31.5 µg/mL (≈ 127 µM) | Cc1ccc(NC2=CC(=O)CC(C)(C)C2)cc1F |
| 28.2 µg/mL (≈ 79.1 µM) | CCc1cccc(OCC2Cn3c(nc4c3c(=O)n(C)c(=O)n4C)O2)c1 (stereo not given) |
| 2.3 µg/mL (≈ 7.05 µM) | Cc1oc(S(=O)(=O)N(C)C)cc1C(=O)Nc1ccc(F)cc1 |
| > 49.9 µg/mL | Cc1ccc(NC(=O)CN(C)C(=O)CSc2nccn2C)cc1 |
| > 57.9 µg/mL | C/C(=N/NC(=O)CN1CCN(Cc2ccccc2Cl)CC1)c1cccnc1 |
| > 71.9 µg/mL | COc1ccc(NC(=O)CSc2ccc(NC(C)=O)cc2)cc1S(=O)(=O)N1CCOCC1 |
| 43 µg/mL (≈ 135 µM) | CC1(NC(=O)Nc2cccc3ccccc23)CCS(=O)(=O)C1 (stereo not given) |
| 1 µg/mL (≈ 3.02 µM) | COC(=O)/C=C1/SC(=Nc2ccc(Cl)c(Cl)c2)NC1=O |
| > 49.1 µg/mL | COc1ccc(S(=O)(=O)NCC2CCC(C(=O)O)CC2)cc1 (stereo not given) |

| solubility kinetic | Structure (SMILES) |
| --- | --- |
| > 43.6 µg/mL | CCOc1ncccc1C(=O)Nc1nnc(C2CC2)s1 |
| > 51.4 µg/mL | CCOc1ccc(CN(C)CC(=O)Nc2cccc(C)c2)cc1OC |
| 37.2 µg/mL (≈ 137 µM) | COc1cccc(COc2ncnc3sccc23)c1 |
| > 31.8 µg/mL | NS(=O)(=O)Cc1noc2ccccc12 |
| 8 µg/mL (≈ 18.5 µM) | COc1ccc(/C=C/C(=O)Nc2cc(S(=O)(=O)N3CCOCC3)ccc2OC)cc1 |
| 41.1 µg/mL (≈ 149 µM) | COc1ccc(NC(=O)CCn2ccnc2)c(OC)c1 |
| > 51.7 µg/mL | COCCCn1c(=O)c2sccc2n(Cc2ccccc2C)c1=O |
| 24.1 µg/mL (≈ 93.3 µM) | O=C(Nc1ccccc1O)c1ccc([N+](=O)[O-])cc1 |
| 3.2 µg/mL (≈ 8.43 µM) | O=C(CN1C(=O)C(=O)N(CCC2=CCCCC2)C1=O)c1c[nH]c2ccccc12 |
| 48.8 µg/mL (≈ 145 µM) | O=C(O)C1CCCCC1C(=O)NC(c1ccccc1)c1ccccc1 (stereo not given) |
| > 41.4 µg/mL | C=CCN1C(=O)CSC1=Nc1ccc(C(=O)O)cc1 |
| > 42.2 µg/mL | Cc1ccc(S(=O)(=O)N2CC(=NN=C(N)N)C2)cc1 |
| > 54.2 µg/mL | Nc1cc(=O)[nH]c(SCC(=O)Nc2ccc(N3CCOCC3)cc2)n1 |
| 9.4 µg/mL (≈ 27.5 µM) | Cc1ccc(NC(=O)N2C3CCCC2CC(NC(=O)C2CC2)C3)cc1 (stereo not given) |
| > 55.3 µg/mL | O=C(CSc1nnc(Nc2ccccc2F)s1)NCC1CCCO1 (stereo not given) |
| > 55.9 µg/mL | Cc1cc(C(=O)CCC(=O)NCC(=O)Nc2c(C)cccc2C)c(C)s1 |
| > 45.2 µg/mL | COc1cccc(C(=O)NOCc2ccc(C)cc2)c1OC |
| 20.4 µg/mL (≈ 58.9 µM) | Cc1cccc(C)c1-n1c(=O)n(Cc2ccccc2)c(=O)c2[nH]cnc21 |
| > 32.6 µg/mL | COc1cc(Oc2ccccc2)nc(N)n1 |
| 17.6 µg/mL (≈ 70.3 µM) | O=Cc1c(SCCO)nc2ccccn2c1=O |

| solubility kinetic | Structure (SMILES) |
| --- | --- |
| 38.8 µg/mL (≈ 128 µM) | CCOc1ccc(Cl)cc1S(=O)(=O)NC1CCCC1 |
| 48.3 µg/mL (≈ 127 µM) | Cc1cc(C(=O)CN2C(=O)NC(CCS(C)(=O)=O)C2=O)c(C)n1C1CC1 (stereo not given) |
| 35.1 µg/mL (≈ 126 µM) | Cc1cc(C)cc(NC(=S)N2CC(C)OC(C)C2)c1 (stereo not given) |
| 17.3 µg/mL (≈ 48.4 µM) | COC(=O)c1ccc(COC(=O)CNC(=O)c2ccc(OC)cc2)cc1 |
| > 48.4 µg/mL | CCCCN(C(=O)C1CCC1)c1c(N)n(CCC)c(=O)[nH]c1=O |
| > 50.9 µg/mL | CC1CN(S(=O)(=O)c2ccccc2)CN1C(=O)N1CCOCC1 (stereo not given) |
| > 52 µg/mL | COc1ccc(CNC(=O)C2(CC(=O)NC(C)(C)C)CCCC2)cc1 |
| > 47.1 µg/mL | COc1ccc(Br)cc1/C=C/C(=O)NCC(=O)O |
| 6.1 µg/mL (≈ 16.9 µM) | COc1ccccc1NS(=O)(=O)c1cc(N)ccc1N1CCCCC1 |
| 21.9 µg/mL (≈ 87.8 µM) | Cc1cc(N2CC(C)OC(C)C2)nc(C(C)C)n1 (stereo not given) |
| > 31.1 µg/mL | C=CCNC(=S)/N=c1/ccccn1C |
| 3.3 µg/mL (≈ 9.93 µM) | Cc1cc(C(=O)COc2cc(F)ccc2[N+](=O)[O-])c(C)n1C1CC1 |
| 18.7 µg/mL (≈ 45.4 µM) | Cc1ccc(S(=O)(=O)N(C)c2ccc(OC(=O)COc3ccccc3)cc2)cc1 |
| 2.4 µg/mL (≈ 7.75 µM) | COc1cccc(NC(=O)c2nc(SC)ncc2Cl)c1 |
| > 33.2 µg/mL | O=C(Nc1ccccc1)OCC1CCCO1 (stereo not given) |
| 14.3 µg/mL (≈ 62.1 µM) | Cn1cccc1C(=O)c1cccc([N+](=O)[O-])c1 |
| 26.5 µg/mL (≈ 80.2 µM) | COc1ccc(Nc2nc(N)c([N+](=O)[O-])c(N3CCCC3)n2)cc1 |
| > 40.9 µg/mL | O=C(NC1CCCC1)C1CC(=O)N(c2ccccc2)C1 (stereo not given) |
| 4.1 µg/mL (≈ 11.3 µM) | COC(=O)c1ccsc1NC(=O)CN1CCN(c2ncccn2)CC1 |
| 1.3 µg/mL (≈ 4.24 µM) | O=C(COc1ccc2c(c1)OCO2)Nc1ccc(Cl)cn1 |

— PubChem BioAssay AID1996
